Usually IC50 stands for the concentration at which inhibition is half-maximal. What is called share remaining is what is left of the initial amount, in per cent. Higher therefore signals less turnover. As usually defined, the solubility (kinetic) is the concentration staying in solution when a stock, usually in DMSO, is diluted into the medium.

Targets include Cytochrome P450 2C19 (Homo sapiens, UniProt P33261); Cytochrome P450 2C9 (Homo sapiens, UniProt P11712); Cytochrome P450 2D6 (Homo sapiens, UniProt P10635); Cytochrome P450 3A4 (Homo sapiens, UniProt P08684).
A further data set has as its target T1, Cytochrome P450 1A2 (Homo sapiens, UniProt P05177).
T1 sequence (P05177 whole entry): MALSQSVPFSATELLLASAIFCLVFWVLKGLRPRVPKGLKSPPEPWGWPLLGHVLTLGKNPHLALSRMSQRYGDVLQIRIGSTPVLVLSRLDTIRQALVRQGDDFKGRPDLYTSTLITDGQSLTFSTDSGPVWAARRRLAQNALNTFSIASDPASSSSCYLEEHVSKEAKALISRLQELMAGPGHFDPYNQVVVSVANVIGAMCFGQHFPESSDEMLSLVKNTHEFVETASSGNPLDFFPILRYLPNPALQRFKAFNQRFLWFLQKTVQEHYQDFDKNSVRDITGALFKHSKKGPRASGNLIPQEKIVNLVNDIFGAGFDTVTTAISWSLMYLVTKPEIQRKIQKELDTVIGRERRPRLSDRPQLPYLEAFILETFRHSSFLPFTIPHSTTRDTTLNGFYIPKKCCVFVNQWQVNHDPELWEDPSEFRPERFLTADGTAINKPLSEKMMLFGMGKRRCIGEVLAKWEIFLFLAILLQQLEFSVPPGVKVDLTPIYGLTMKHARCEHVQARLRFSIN

Data set [1] can be described thus: in vitro. The settings on record: human, liver microsomes. (Liver microsomes are vesicles of endoplasmic reticulum, rich in cytochrome P450 enzymes.)
Data set [2] in a line: in vitro. The settings on record: rat, liver microsomes.
Data set [3] addresses T2, Neuropeptide Y receptor type 5 (Mus musculus, UniProt O70342).
T2 sequence (O70342 whole entry): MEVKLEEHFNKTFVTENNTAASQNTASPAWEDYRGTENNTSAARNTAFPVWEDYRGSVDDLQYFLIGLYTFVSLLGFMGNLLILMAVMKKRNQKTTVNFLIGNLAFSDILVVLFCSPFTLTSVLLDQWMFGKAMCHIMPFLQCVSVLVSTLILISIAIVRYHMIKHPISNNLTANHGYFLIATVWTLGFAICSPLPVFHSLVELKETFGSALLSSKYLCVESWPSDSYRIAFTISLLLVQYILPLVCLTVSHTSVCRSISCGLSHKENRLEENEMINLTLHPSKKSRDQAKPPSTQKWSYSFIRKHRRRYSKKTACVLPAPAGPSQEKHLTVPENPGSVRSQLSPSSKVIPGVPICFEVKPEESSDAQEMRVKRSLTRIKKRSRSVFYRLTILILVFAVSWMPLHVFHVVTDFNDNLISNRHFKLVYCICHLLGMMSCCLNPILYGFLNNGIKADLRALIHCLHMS
In words: Displacement of [125I]PYY from mouse NPY Y5 receptor. In general terms: In a radioligand displacement assay an active substance lowers the binding of a labelled ligand.

A further data set can be described thus: physchem. The settings on record: 1% DMSO, pH 6.8.

Values after ≈ are worked out from the molar mass of the structure shown.

Cytochrome P450 3A4, sequence (P08684 whole entry): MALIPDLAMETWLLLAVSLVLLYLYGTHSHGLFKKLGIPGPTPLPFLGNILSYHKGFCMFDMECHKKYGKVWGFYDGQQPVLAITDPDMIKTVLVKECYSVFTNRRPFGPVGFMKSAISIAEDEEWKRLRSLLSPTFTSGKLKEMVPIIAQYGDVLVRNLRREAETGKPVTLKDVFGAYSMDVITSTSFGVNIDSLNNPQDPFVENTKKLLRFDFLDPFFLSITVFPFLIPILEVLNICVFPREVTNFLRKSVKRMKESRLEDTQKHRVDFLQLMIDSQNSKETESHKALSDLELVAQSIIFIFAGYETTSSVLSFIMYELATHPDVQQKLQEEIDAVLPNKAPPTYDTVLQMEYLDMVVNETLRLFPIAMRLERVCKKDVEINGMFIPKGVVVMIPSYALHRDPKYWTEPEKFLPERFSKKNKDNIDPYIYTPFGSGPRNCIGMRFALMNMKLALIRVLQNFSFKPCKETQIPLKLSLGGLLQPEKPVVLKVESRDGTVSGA
Cytochrome P450 2D6, sequence (P10635 whole entry): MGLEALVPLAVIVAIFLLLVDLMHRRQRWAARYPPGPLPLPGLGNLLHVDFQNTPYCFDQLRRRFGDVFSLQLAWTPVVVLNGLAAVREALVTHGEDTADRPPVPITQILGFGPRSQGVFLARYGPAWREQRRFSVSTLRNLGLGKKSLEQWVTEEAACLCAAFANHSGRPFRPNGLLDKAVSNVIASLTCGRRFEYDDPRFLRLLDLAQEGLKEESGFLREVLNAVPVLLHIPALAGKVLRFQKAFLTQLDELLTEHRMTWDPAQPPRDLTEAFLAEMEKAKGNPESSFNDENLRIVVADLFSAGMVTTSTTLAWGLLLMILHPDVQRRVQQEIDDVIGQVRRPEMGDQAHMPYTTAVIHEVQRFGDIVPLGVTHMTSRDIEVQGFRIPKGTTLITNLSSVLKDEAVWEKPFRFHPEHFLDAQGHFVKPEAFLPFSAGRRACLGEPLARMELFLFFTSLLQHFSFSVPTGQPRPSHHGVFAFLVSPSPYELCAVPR
Cytochrome P450 2C9, sequence (P11712 whole entry): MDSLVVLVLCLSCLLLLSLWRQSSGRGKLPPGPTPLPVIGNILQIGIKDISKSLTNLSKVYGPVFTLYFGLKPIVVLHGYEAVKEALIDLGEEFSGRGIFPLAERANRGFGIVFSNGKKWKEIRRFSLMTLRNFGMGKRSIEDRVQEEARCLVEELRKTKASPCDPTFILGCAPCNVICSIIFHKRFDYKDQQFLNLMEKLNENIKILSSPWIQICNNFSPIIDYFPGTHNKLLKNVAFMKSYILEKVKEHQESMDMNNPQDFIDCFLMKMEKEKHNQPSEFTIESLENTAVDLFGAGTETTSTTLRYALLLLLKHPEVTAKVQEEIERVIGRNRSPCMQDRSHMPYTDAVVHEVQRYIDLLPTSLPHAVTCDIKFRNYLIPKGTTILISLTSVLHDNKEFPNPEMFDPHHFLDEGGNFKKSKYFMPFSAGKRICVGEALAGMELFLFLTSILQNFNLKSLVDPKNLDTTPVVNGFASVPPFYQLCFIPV
Cytochrome P450 2C19, sequence (P33261 whole entry): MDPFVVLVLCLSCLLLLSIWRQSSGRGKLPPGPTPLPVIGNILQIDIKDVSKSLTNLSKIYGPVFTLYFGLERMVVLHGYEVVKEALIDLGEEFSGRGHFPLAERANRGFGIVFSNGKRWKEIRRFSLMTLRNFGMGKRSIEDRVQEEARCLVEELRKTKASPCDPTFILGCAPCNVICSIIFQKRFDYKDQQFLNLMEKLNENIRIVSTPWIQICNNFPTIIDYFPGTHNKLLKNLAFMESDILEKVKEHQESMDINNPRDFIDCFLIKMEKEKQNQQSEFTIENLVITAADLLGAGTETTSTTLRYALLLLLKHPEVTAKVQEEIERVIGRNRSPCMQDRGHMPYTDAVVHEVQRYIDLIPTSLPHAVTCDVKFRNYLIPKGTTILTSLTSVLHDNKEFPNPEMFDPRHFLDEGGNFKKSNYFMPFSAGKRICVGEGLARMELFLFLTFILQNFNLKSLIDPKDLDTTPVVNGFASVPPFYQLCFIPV

Take `CCCS(=O)(=O)c1ccc2[nH]c(-c3ccc(=O)n(-c4ccccc4)c3)nc2c1`: the concentration for half-maximal inhibition (IC50) against Cytochrome P450 1A2, on Cytochrome P450 2C19, on Cytochrome P450 2C9, at Cytochrome P450 2D6 and against Cytochrome P450 3A4 was above 20 µM each time. Besides, the fraction remaining at 0.5 h is 88.5% in the data set “in vitro [1]” and 78.6% in the data set “in vitro [2]”.

In [3], `CCCS(=O)(=O)c1ccc2nc(-c3cccc(OC(F)(F)F)c3)[nH]c2c1` registered an IC50 of 0.0019 µM.

Regarding `CC(C)(C)S(=O)(=O)c1ccc2nc(-c3ccc(=O)n(-c4ccccc4)c3)[nH]c2c1`, the IC50 in data set [3] is 0.0075 µM; against Cytochrome P450 1A2 it was above 20 µM; at Cytochrome P450 2D6, above 20 µM; against Cytochrome P450 3A4, above 20 µM. Moreover, in the data set “physchem”, the solubility (kinetic) came to 9.4 µM (≈ 3.83 µg/mL). Further, the fraction remaining at 0.5 h is 94.2% in “in vitro [1]” and above 99.9% in the data set “in vitro [2]”.

Turning to `CCCS(=O)(=O)c1ccc2nc(-c3cccc(C(F)(F)F)c3)[nH]c2c1`, the figures for the IC50 on Cytochrome P450 1A2, against Cytochrome P450 2D6 and at Cytochrome P450 3A4 were 0.4 µM, above 20 µM and 20 µM, respectively.

As for `CCS(=O)(=O)c1ccc2[nH]c(-c3ccc(Cl)c(-c4ccccc4)c3)nc2c1`, the IC50 stood at 0.00016 µM in data set [3], 8.5 µM against Cytochrome P450 1A2, 18 µM on Cytochrome P450 2D6 and 2.6 µM on Cytochrome P450 3A4.

With `CCS(=O)(=O)c1ccc2nc(-c3cc(-c4ccccc4)ccc3C)[nH]c2c1`, the figures for the IC50 (in data set [3]; at Cytochrome P450 1A2; at Cytochrome P450 2D6) were 0.383 µM, 0.4 µM and 14 µM, respectively. The compound also came in with a kinetic solubility in “physchem” of 0.5 µM (≈ 0.188 µg/mL).

Turning to `CCS(=O)(=O)c1ccc2nc(-c3cc(-c4ccccc4)ccc3Cl)[nH]c2c1`, the IC50 stood at 0.0311 µM in data set [3], 0.4 µM on Cytochrome P450 1A2, 15 µM against Cytochrome P450 2D6 and 5 µM on Cytochrome P450 3A4. This compound gave a solubility (kinetic) in “physchem” of 0.4 µM (≈ 0.159 µg/mL).

`CCS(=O)(=O)c1ccc2nc(-c3cc(-c4ccccc4)ccn3)[nH]c2c1` showed an IC50 in [3] of 0.00055 µM.

Turning to `CCS(=O)(=O)c1ccc2nc(-c3cccc(-c4ccccc4)c3C)[nH]c2c1`, the IC50 in [3] is 0.0218 µM; against Cytochrome P450 1A2, 7.8 µM; on Cytochrome P450 2D6 it was above 20 µM; against Cytochrome P450 3A4 it was 5.2 µM. The kinetic solubility in “physchem” is 3.2 µM (≈ 1.2 µg/mL).

With `CCS(=O)(=O)c1ccc2[nH]c(-c3cc(-c4ccccc4)ccc3F)nc2c1`, the IC50 in [3] came out at 0.00054 µM.

With `CCCS(=O)(=O)c1ccc2[nH]c(-c3cccc(-c4ccccc4)c3)nc2c1`, the IC50 in [3] was 0.00043 µM; at Cytochrome P450 1A2 it was 2.7 µM; against Cytochrome P450 2D6, above 20 µM; against Cytochrome P450 3A4, 6 µM. Moreover, in the data set “physchem”, the solubility (kinetic) stood at 0.5 µM (≈ 0.188 µg/mL). For the same compound, the share remaining at 0.5 h in the data set “in vitro [1]” came out at 68.6%; in the data set “in vitro [2]”, 57.1%.

Regarding `O=c1ccc(-c2nc3cc(S(=O)(=O)CC(F)(F)F)ccc3[nH]2)cn1-c1ccccc1`, the 50% inhibitory concentration (IC50) in [3] is 0.00029 µM; against Cytochrome P450 1A2, above 20 µM; on Cytochrome P450 2D6, above 20 µM; against Cytochrome P450 3A4 it was above 20 µM. Also, the kinetic solubility in the data set “physchem” was determined as 7.7 µM (≈ 3.34 µg/mL). Moreover, the figures for the share remaining at 0.5 h in “in vitro [1]” and in the data set “in vitro [2]” were 94.7% and 93.6%, respectively.

Regarding `CCCS(=O)(=O)c1ccc2nc(-c3ccc(-c4ccccc4)cc3)[nH]c2c1`, the results for the IC50 on Cytochrome P450 1A2, against Cytochrome P450 2D6 and on Cytochrome P450 3A4 were above 20 µM, 15 µM and 2.9 µM, respectively.

As for `CCS(=O)(=O)c1ccc2nc(-c3ccc(C)c(-c4ccccc4)c3)[nH]c2c1`, the IC50 against Cytochrome P450 1A2 is 3.2 µM; at Cytochrome P450 2D6, above 20 µM; at Cytochrome P450 3A4, 5.7 µM.

On to `CCS(=O)(=O)c1ccc2[nH]c(-c3cccc(-c4ccccc4)n3)nc2c1`, for which the IC50 in data set [3] is 0.0389 µM.

In the case of `CCS(=O)(=O)c1ccc2[nH]c(-c3cccc(-c4ccccc4)c3Cl)nc2c1`, the IC50 in data set [3] is 0.0405 µM; at Cytochrome P450 1A2, 3 µM; on Cytochrome P450 2D6, 18 µM; on Cytochrome P450 3A4 it was 3.8 µM. For the same compound, in “physchem”, the kinetic solubility worked out at 1.5 µM (≈ 0.595 µg/mL).

Consider `CCS(=O)(=O)c1ccc2[nH]c(-c3cncc(-c4ccccc4)c3)nc2c1`, for which the values for the IC50 on Cytochrome P450 1A2, on Cytochrome P450 2D6 and on Cytochrome P450 3A4 were 6.3 µM, above 20 µM and 7.8 µM, respectively.

As for `CCS(=O)(=O)c1ccc2[nH]c(-c3ccnc(-c4ccccc4)c3)nc2c1`, the half-maximal inhibitory concentration (IC50) was 0.00031 µM in data set [3], 3.4 µM against Cytochrome P450 1A2, above 20 µM against Cytochrome P450 2D6 and 8.7 µM at Cytochrome P450 3A4. For the same compound, the solubility (kinetic) in the data set “physchem” was 20.3 µM (≈ 7.38 µg/mL).

Regarding `CCCS(=O)(=O)c1ccc2[nH]c(-c3cccn(-c4ccccc4)c3=O)nc2c1`, the 50% inhibitory concentration (IC50) against Cytochrome P450 1A2, on Cytochrome P450 2C19, on Cytochrome P450 2C9, against Cytochrome P450 2D6 and on Cytochrome P450 3A4 was above 20 µM each time.

Regarding `CCS(=O)(=O)c1ccc2nc(-c3cccc(-c4ccccc4)c3F)[nH]c2c1`, the IC50 in data set [3] was 0.0027 µM; at Cytochrome P450 1A2 it was 1.1 µM; at Cytochrome P450 2D6, above 20 µM; at Cytochrome P450 3A4 it was 6.6 µM. In “physchem”, this compound registered a solubility (kinetic) of 0.6 µM (≈ 0.228 µg/mL).

Regarding `CCCS(=O)(=O)c1ccc2nc(-c3cn(-c4ccccc4)ccc3=O)[nH]c2c1`, the IC50 in [3] is 0.579 µM; on Cytochrome P450 1A2 it was above 20 µM; at Cytochrome P450 2C19 it was above 20 µM; on Cytochrome P450 2C9 it was above 20 µM; on Cytochrome P450 2D6 it was above 20 µM; on Cytochrome P450 3A4, above 20 µM. For the same compound, the kinetic solubility in “physchem” is 2 µM (≈ 0.787 µg/mL).

Consider `CCS(=O)(=O)c1ccc2[nH]c(-c3cccc(-c4ccccc4)c3)nc2c1`, for which, in data set [3], the IC50 was found to be 0.00046 µM.

Regarding `CCCS(=O)(=O)c1ccc2[nH]c(-c3ccccc3-c3ccccc3)nc2c1`, the half-maximal inhibitory concentration (IC50) in data set [3] is 4.06 µM; against Cytochrome P450 1A2, above 20 µM; against Cytochrome P450 2C19, above 20 µM; against Cytochrome P450 2C9 it was 4.5 µM; at Cytochrome P450 2D6, 15 µM; against Cytochrome P450 3A4 it was 11 µM. In the data set “physchem”, this compound had a kinetic solubility of 23.6 µM (≈ 8.88 µg/mL).

Turning to `CCCS(=O)(=O)c1ccc2nc(-c3ccccc3)[nH]c2c1`, the concentration for half-maximal inhibition (IC50) was 4.66 µM in data set [3], 2.9 µM on Cytochrome P450 1A2, above 20 µM at Cytochrome P450 2D6 and above 20 µM on Cytochrome P450 3A4. In “physchem”, this compound yielded a kinetic solubility above 50 µM.

For `CCS(=O)(=O)c1ccc2nc(-c3ccc(F)c(-c4ccccc4)c3)[nH]c2c1`, the IC50 worked out at 0.00016 µM in [3], 3.4 µM against Cytochrome P450 1A2, 16 µM at Cytochrome P450 2D6 and 5.6 µM at Cytochrome P450 3A4. In “physchem”, this compound returned a solubility (kinetic) of 0.2 µM (≈ 0.0761 µg/mL).

`O=c1ccc(-c2nc3ccc(S(=O)(=O)C(F)(F)F)cc3[nH]2)cn1-c1ccccc1` had an IC50 in data set [3] of 0.0025 µM.

The record behind these values is ChEMBL document CHEMBL2069245 (Bioorg Med Chem Lett, 2012).
